# Where two headings read alike, the source gives them in different places. Where a SMILES comes first, the peptide text is derived from it. Bridges are numbered along the chain shown (N, C = ends). [ ]: non-standard residue; d: D form.
# How the values were obtained:
# [1] = tested on: MIIA PaCa-2 Human Pancreatic Cancer Cell Line; experiment: Growth of MIIA PaCa-2 cells in vitro (crystal violet T/C); type: cell-based
# From the text: (§1) For the evaluation of the activity of the analogs, a colorimetric cytotoxicity assay in microtitration plates was used based on quantification of biomass by staining cells with crystal violet, which correlates very well with determination of cell numbers. (Reile et al.; Anal. Biochem. 187, 262-267, 1990; Bernhardt G. et al, J. Cancer Res. Clin. Oncol. (1992), 118, 35-43; Spruss Th. et al, J. Cancer Res. Clin. Oncol 117, 435-443, 1991; Gillies, R. J., Anal. Biochem. 159, 109-113, 1986; Kueng, W. et al.; Anal. Biochem., 182 16-19, 1989.)
# (§2) One to two days after seeding cells in 96-well plates the culture medium is exchanged with fresh medium containing the compounds to be tested and fresh medium only for the control cultures. After varying time of incubation, cells are fixed with glutaric dialdehyde and stored under […] at 4° C. until the end of the experiment. Cells are stained with crystal violet and bound stain is extracted with 70% aqueous EtOH. Optical density is measured with EIA Reader (Bio-Tek Instruments) or Biomek 1000 (Beckman) at 590 nm or 600 nm, respectively. Each data point represents the mean value of eight culture wells. T/C values are calculated as T/C=(T-C0)/(C-C0) where T=optical density of treated cultures, C=optical density of control (untreated) cultures, C0 =optical density of cultures at the start of incubation (t=0).
# Cells were incubated in RPMI 1640 media containing 10% fetal bovine serum on 96 well plates. [drawing 8]
# [2] = tested on: growth hormone release from superfused rat pituitary cells; experiment: Inhibition of hGH-RH(1-29)NH2 induced GH release, rat pituitary superfusion system; type: cell-based
# Protocol: Accordingly, this method was used to compare the cytotoxic somatostatin analogs of the present invention to their parent carrier molecules with respect to their hormonal activities.
# In rat pituitary superfusion system, the somatostatin analogs were administered for 3 min at 1 nM dose simultaneously with 1 nM hGH-RH(1-29)NH2. The infusion of the somatostatin analogs was maintained for another 6 min. GH responses to 3 min administration of 1 nM hGH-RH(1-29)NH2 were determined during the perfusion of the somatostatin analogs (0 min) and 30, 60 and 90 min after the administration stopped.
# [3] = tested on: MXT estrogen independent mouse mammary carcinoma cell line; experiment: In vitro cytotoxic activity, crystal violet colorimetric assay on MXT; type: cell-based
# From the text: (§3) MXT estrogen-independen mouse mammary carcinoma cell line was obtained from Dr. Gunter Berndhart, University of Regensburg, Germany. All the other cell lines used in the determination of the antiproliferative activity of the compounds of this invention were obtained from the American Type Culture Collection (ATCC).
# as §1, §2
# [4] = tested on: estrogen independent MXT mouse mammary cancers; experiment: Single treatment of estrogen independent MXT mouse mammary cancers (KS-55); type: in vivo
# Protocol: In order to determine the maximum tolerated doses and compare the effects, MXT (3.2) ovex tumor pieces (1 mm^3) were implanted s.c. in female B6 D2 F1 mice. One day after transplantation the mice were randomly divided into groups of five animals and they were treated with a single injection i.p. The groups and doses are shown in the Table 25-1. […] The compounds were dissolved in 0.1% TFA (pH: 2.0). Tumor volume was measured on days 10, 13, 17, and 20.
# [5] = tested on: MCF-7 human mammary carcinoma cell line; type: cell-based
# From the text: as §3, §1, §2
# Cells were incubated in IMEM media containing 5% Hl:DCC-FBS (heat inactivated dextran coated charcoal treated fetal bovine serum) on 96 well plates. Relative cell number in treated and control plates was determined by the crystal violet staining method and was expressed as T/C values where T/C=T-C0 /C-C0×100 [T=absorbance of treated cultures, C= absorbance of control cultures, C0 =absorbance of cultures at the start of incubation (t=0). The measured absorbance is proportionate to the cell number.]
# [6] = tested on: CFPAC-1 Human Pancreatic Cancer Cell; experiment: Growth of CFPAC-1 cells in vitro (crystal violet T/C); type: cell-based
# From the text: as §1, §2
# [7] = tested on: estrogen independent MXT mouse mammary cancers; experiment: Treatment of estrogen independent MXT mouse mammary cancers (KS-49); type: in vivo; conditions: for Average survival: 520 nmol/inj. i.p., 3 weeks, total 1560 nmol (Group 13)
# From the text: In order to compare the tumor inhibitory activity of cytotoxic doxorubicin derivative, Q6 and its targeted cytotoxic peptide conjugate, Q6^14 gL as well as the well known antineoplastic agent, DOX and to determine the optimal way of administration and the nontoxic doses, LH-RH receptor positive MXT (3.2) ovex tumor pieces (1 mm^3) were implanted s. c. in female B6 D2 F1 mice. One day after transplantation the mice were randomly divided into groups of five animals and the treatment started. The compounds were dissolved in 0.1% trifluoroacetic acid (pH 2) and given intraperitoneally.
# [8] = 0 min (during perfusion of 1 nM somatostatin analog), percentage of GH release before analog
# [9] = 30 min after infusion of 1 nM somatostatin analog
# [10] = 60 min after infusion of 1 nM somatostatin analog
# [11] = single i.p. injection 650 nmol/20 g
# [12] = single i.p. injection 700 nmol/20 g
# [13] = single i.p. injection 750 nmol/20 g
smiles,measurement,setting,value
CC(C)[C@@H]1NC(=O)[C@H](CCCCN)NC(=O)[C@@H](Cc2c[nH]c3ccccc23)NC(=O)[C@H](Cc2ccc(O)cc2)NC(=O)[C@@H](NC(=O)[C@H](N)Cc2ccccc2)CSSC[C@@H](C(=O)N[C@H](C(N)=O)[C@@H](C)O)NC1=O [Compound S-121],T/C Value,"[1]; 10^-6 M, incubation 28 h",76
same,T/C Value,"[1]; 10^-6 M, incubation 76 h",96
same,GH release induced by 3 min administration of 1 nM hGH-RH(1-29)NH2,[2]; [8],0%
same,GH release induced by 3 min administration of 1 nM hGH-RH(1-29)NH2,[2]; [9],90%
same,GH release induced by 3 min administration of 1 nM hGH-RH(1-29)NH2,[2]; [10],89.7%
C[C@@H](O)[C@H](NC(=O)[C@@H]1CSSC[C@H](NC(=O)[C@H](N)Cc2c[nH]c3ccccc23)C(=O)N[C@@H](Cc2ccccc2)C(=O)N[C@H](Cc2c[nH]c3ccccc23)C(=O)N[C@@H](CCCCN)C(=O)N[C@@H]([C@@H](C)O)C(=O)N1)C(N)=O [Compound S-98] (H-[dW]CF[dW]KTCT-NH2; disulfide 2-7),T/C Value,"[1]; 10^-6 M, incubation 28 h",96
same,T/C Value,"[1]; 10^-6 M, incubation 76 h",98
same,GH release induced by 3 min administration of 1 nM hGH-RH(1-29)NH2,[2]; [8],2.9%
same,GH release induced by 3 min administration of 1 nM hGH-RH(1-29)NH2,[2]; [9],94.7%
same,GH release induced by 3 min administration of 1 nM hGH-RH(1-29)NH2,[2]; [10],117.6%
"COc1cccc2c1C(=O)c1c(O)c3c(c(O)c1C2=O)C[C@@](O)(C(=O)CO)C[C@@H]3O[C@H]1C[C@H](N)[C@H](O)[C@H](C)O1 [Doxorubicin, doxorubicin]",T/C value on MXT cell line,"[3]; 3 × 10^-8 M, 26 hr",90
same,T/C value on MXT cell line,"[3]; 3 × 10^-8 M, 50 hr",60
same,T/C value on MXT cell line,"[3]; 10^-7 M, 26 hr",59
same,T/C value on MXT cell line,"[3]; 10^-7 M, 50 hr",43
same,T/C value on MXT cell line,"[3]; 10^-8 M, 26 hr",85
same,T/C value on MXT cell line,"[3]; 10^-8 M, 50 hr",74
same,Suppression of tumor growth,[4]; dose of 650 nmol/20 g mouse (as printed in text),significantly less effective
same,Toxicity,[4]; single dose of 650 nmol/20 g mouse (as printed in text),highly toxic
same,Average survival,[4]; [11],13.6 days
same,Number of tumorous mice/number of surviving mice Day 10,[4]; [11],3/3
same,Number of tumorous mice/number of surviving mice Day 13,[4]; [11],2/2
same,Number of tumorous mice/number of surviving mice Day 17,[4]; [11],1/1
same,Number of tumorous mice/number of surviving mice Day 20,[4]; [11],1/1
same,Average survival,[4]; [12],15.2 days
same,Number of tumorous mice/number of surviving mice Day 10,[4]; [12],2/3
same,Number of tumorous mice/number of surviving mice Day 13,[4]; [12],2/3
same,Number of tumorous mice/number of surviving mice Day 17,[4]; [12],2/2
same,Average survival,[4]; [13],7.8 days
same,Number of tumorous mice/number of surviving mice Day 10,[4]; [13],1/1
same,T/C Value,"[1]; 10^-6 M, incubation 28 h",-28
same,T/C Value,"[1]; 10^-6 M, incubation 76 h",-7
same,T/C Value,"[1]; 10^-7 M, incubation 28 h",64
same,T/C Value,"[1]; 10^-7 M, incubation 76 h",10
same,T/C Value,"[1]; 10^-8 M, incubation 28 h",95
same,T/C Value,"[1]; 10^-8 M, incubation 76 h",71
same,T/C Value,"[5]; Table 17-1, 10^-8 M; incubation 70 hr",54
same,T/C Value,"[5]; Table 17-1, 10^-8 M; incubation 120 hr",33
same,T/C Value,[5]; Table 17-1; 3 × 10^-8 M; incubation 70 hr,82
same,T/C Value,[5]; Table 17-1; 3 × 10^-8 M; incubation 120 hr,66
same,T/C Value,[5]; Table 17-1; 10^-8 M; incubation 70 hr,98
same,T/C Value,[5]; Table 17-1; 10^-8 M; incubation 120 hr,95
same,T/C Value on MCF-7 Cell Line,[5]; Table 18-1; 3 × 10^-8 M; 70 hr,82
same,T/C Value on MCF-7 Cell Line,[5]; Table 18-1; 3 × 10^-8 M; 120 hr,66
same,T/C Value on MCF-7 Cell Line,[5]; Table 18-1; 10^-7 M; 70 hr,54
same,T/C Value on MCF-7 Cell Line,[5]; Table 18-1; 10^-7 M; 120 hr,33
same,T/C Value on MCF-7 Cell Line,[5]; Table 18-1; 10^-8 M; 70 hr,98
same,T/C Value on MCF-7 Cell Line,[5]; Table 18-1; 10^-8 M; 120 hr,95
same,T/C Value,"[6]; 3 × 10^-7 M, incubation 66 h",15
same,T/C Value,"[6]; 3 × 10^-7 M, incubation 95 h",10
same,T/C Value,"[6]; 3 × 10^-7 M, incubation 137 h",7
same,T/C Value,"[6]; 3 × 10^-8 M, incubation 66 h",88
same,T/C Value,"[6]; 3 × 10^-8 M, incubation 95 h",73
same,T/C Value,"[6]; 3 × 10^-8 M, incubation 137 h",49
same,T/C Value,"[6]; 10^-6 M, incubation 66 h",-7
same,T/C Value,"[6]; 10^-6 M, incubation 95 h",-6
same,T/C Value,"[6]; 10^-6 M, incubation 137 h",-4
same,T/C Value,"[6]; 10^-7 M, incubation 66 h",52
same,T/C Value,"[6]; 10^-7 M, incubation 95 h",32
same,T/C Value,"[6]; 10^-7 M, incubation 137 h",20
same,Average survival,[7],20 days
same,Average survival,[7]; listed as DOX,20.0 days
same,Eradication of the tumor,"[7]; toxic dose, total amount 1560 nmol",could not eradicate the tumor

# Reference: US6184374A, “Targeted cytotoxic anthracycline analogs” (priority 1998, dated 2001)
